Measurements from US9012403B2, “Peptides as active agents to stabilize biological barriers” (XiberScience GmbH, priority 2010, dated 2015).
Marks after values point to notes of the source that are not given here.

Tests used:
GEF [1] = experiment: GEF-activity in membrane fractions of ECV304 cells (RhoGEF Exchange Assay); assay type: cell-based; conditions: ECV 304, no stimulus, peptide 50 μg/ml
Description: (§1) To measure the GEF-inhibitory effect, the following cell lines were used: Caco-2 (epithelial cells from adeno-carcinoma), ECV304 (epithelial cells from bladder carcinoma) and HpMec (endothelial cells, immortalized pulmonary micro-vascular cells). All cells were grown at standard conditions (37° C., 5% CO2 and 95% relative humidity (rH)). Culture Medium used for Caco-2: DMEM+1 mM sodium pyruvate+20% FCS+1% Penicillin Streptomycin; for ECV 304: RPMI 1640+10% FCS+1% Penicillin Streptomycin; and for HpMec: IMDM+25 mM Hepes+10% Human Serum+1% Penicillin Streptomycin+1% L-Glutamine+ECGS/Heparin 2 ml. 4 h before the experiment, cells were starved by serum withdrawal. To induce GEF-activity, cells were stimulated with thrombin, lipopolysaccharide (LPS) or PMA for the indicated time in presence or absence of 50 μg/ml XIB1-a or XIB1-b. After stimulation, membrane fractions were prepared by using the commercial available “Compartemental Protein Extraction Kit” from Biochain institutes. Membrane fractions were prepared according to the manufacturer instructions. GEF-activity in membrane lysates was determined by using “RhoGEF Exchange Assay Biochem Kit” from Cytoskeleton Inc. according to manufacturer instructions. GEF-activity was measured as fluorescence at using the Fluoroskan Ascent FL 2.6 from Thermo Electron Corporation. The excitation Filter wavelength was set at 355 nm and the emission filter wavelength at 460 nm.

GEF [2] = experiment: GEF-activity in membrane fractions of Caco-2 cells (RhoGEF Exchange Assay); assay type: cell-based; conditions: CaCo-2, no stimulus, peptide 50 μg/ml
Description: as §1

GEF [3] = experiment: GEF-activity in membrane fractions of HpMec cells (RhoGEF Exchange Assay); assay type: cell-based; conditions: HpMec, no stimulus, peptide 50 μg/ml
Description: as §1

GTP-bound RhoA [4] = experiment: GTP-associated active RhoA in ECV304 membrane fraction (western blot); assay type: cell-based; conditions: ECV 304, no stimulus, peptide 50 μg/ml
Description: (§2) To measure the GTP-associated active RhoA, the following cell lines were used: Caco-2, ECV304 and HpMec. All cells were grown at standard conditions (37° C., 5% CO2 and 95% rH). 4 h before the experiment, cells were starved by serum withdrawal. To induce GEF-activity, cells were stimulated with thrombin, LPS or PMA for the indicated time in presence or absence of 50 μg/ml XIB1-a or XIB1-b. After stimulation, membrane fractions were prepared by using the commercial available “Compartemental Protein Extraction Kit” from Biochain Institutes. Membrane fractions were prepared according to the manufacturer instructions. The membrane fraction was separated on 15% polyacrylamide gel according to standard procedures of gel electrophoresis. The gels were afterwards blotted on a nitrocellulose membrane according to standard procedures of western blotting. GTP-bound RhoA was detected using RhoA-GTP monoclonal antibody from NewEast Inc. in a dilution of 1:5000. Protein bands were analyzed with the Dolphin-1D Gel analysis system (Wealtec).

GTP-bound RhoA [5] = experiment: GTP-associated active RhoA in Caco-2 membrane fraction (western blot); assay type: cell-based; conditions: CaCo-2, no stimulus, peptide 50 μg/ml
Description: as §2

GTP-bound RhoA [6] = experiment: GTP-associated active RhoA in HpMec membrane fraction (western blot); assay type: cell-based; conditions: HpMec, no stimulus, peptide 50 μg/ml
Description: as §2

[7] = test system: Phosphorylated Myosin Light Chain (MLC) and actin stress fibers; experiment: MLC phosphorylation and actin stress fiber formation in ECV304 cells (microscopy score); assay type: cell-based; conditions: ECV 304, no stimulus, peptide 50 μg/ml
Description: (§3) To measure MLC phosphorylation and actin stress fiber formation, the following cell lines were used: Caco-2, ECV304 and HpMec. All cells were grown at standard conditions (37° C., 5% CO2 and 95% rH). Culture Medium used: for Caco-2: DMEM+1 mM sodium pyruvate+20% FCS+1% Penicillin Streptomycin; for ECV 304: RPMI 1640+10% FCS+1% Penicillin Streptomycin; and for HpMec: IMDM+25 mM Hepes+10% Human Serum+1% Penicillin Streptomycin+1% L-Glutamine+ECGS/Heparin 2 ml. 4 h before the experiment, cells were starved by serum withdrawal. To induce GEF-activity, cells were stimulated with thrombin, LPS or PMA for the indicated time in presence or absence of 50 μg/ml XIB1-a or XIB1-b. After stimulation, cells were fixed using 4% PFA. Phospho MLC was detected by using the “rabbit anti phosphor-myosin light chain antibody” from Chemicon in a concentration of 3 μl/ml in PBS (Gibco) supplemented with 0.1% Triton X-100. As detection antibody, the Alexa 448 tagged “anti Rabbit IgG Antibody” from Invitrogen was used in a concentration of 0.5 μl/ml in PBS (Gibco) supplemented with 0.1% Triton X-100. Aktin was detected using TRITC-labeled Phalloidin in a concentration of 0.5 μl/ml in PBS (Gibco) supplemented with 0.1% Triton. Stained cells were analyzed by using a Zeiss Laser Scan microscope. Evaluation of the cyto-skeletal activation was performed by 2 independent observers that were blinded to the conditions. Evaluation criteria were set as follows:
(§4) Actin: parallel actin bundles absent=0; distinct bundle formation=1; prominent parallel bundles=2; Phospho-MLC: present at cell poles=0; slight co-localization with actin bundles=1; prominent co-localization with actin bundles=2

[8] = test system: Phosphorylated Myosin Light Chain (MLC) and actin stress fibers; experiment: MLC phosphorylation and actin stress fiber formation in Caco-2 cells (microscopy score); assay type: cell-based; conditions: CaCo-2, no stimulus, peptide 50 μg/ml
Description: as §3, §4

[9] = test system: Phosphorylated Myosin Light Chain (MLC) and actin stress fibers; experiment: MLC phosphorylation and actin stress fiber formation in HpMec cells (microscopy score); assay type: cell-based; conditions: no stimulus, peptide 50 μg/ml
Description: as §3, §4

LPS induced lung injury = experiment: LPS induced lung injury, bronchoalveolar lavage; assay type: in vivo; conditions: mice, n = 20
Description: Male C57Bl/6 Mice (Charles River, Germany) were kept at the animal facility of the Medical University of Vienna, feed with standard diet and water was provided ad libitum. All interventions were performed according to the guide lines of AAALAC (Association for Assessment and Accreditation of Laboratory Animal Care). All experiment were approved by the Ethic committee of the Medical University of Vienna. Mice were anesthetized with isoflouran and treated with 100 ng of LPS (E. coli O55:B5, Sigma Aldrich) intranasally. XIB1-a or XIB1-b was applied either intra-peritoneally (2×2 mg/kg) or via inhalation (2×4 mg/kg), first application was performed concomitantly with LPS administration, the second application was performed 1 h after the LPS inhalation.
The trachea was exposed through a midline incision and canulated with a sterile 20-gauge catheter (BD Venflon™, Becton Dickinson Infusion Therapy, Helsingborg, Sweden). Bilateral broncho-alveolar lavage fluid (BALF) was gained by instilling two 0.5 ml aliquots of sterile saline. Approximately 0.9-1 ml BALF was retrieved per mouse. Total cell numbers were counted from each sample using a hemo-cytometer (Türck chamber), BALF differential cell counts were done on cytospin preparations stained with Giemsa. For protein measurements, BALF was diluted 1:2 in buffer containing 300 mM NaCl, 30 mM Tris, 2 mM MgCl2, 2 mM CaCl2, and Pepstatin A, Leupeptin and Aprotinin (all 20 ng/ml; pH 7.4). Protein levels in BALF were measured using the BCA protein kit according to the manufacturer's instructions (Pierce, Rockford, Ill.).
In addition, the same set-up as described above was used for comparing the impact of XIB1-b compared to Bβ15-42 (PLoS ONE (2009), 4(4): e5391), a peptide derived from fibrin having the sequence […] (SEQ ID NO: 41). Bβ15-42 was added in the same manner as XIB1-b. Again, protein content and cell count of BALF was measured.

[10] = 6 h after LPS administration, intratracheal application

GGGGGLSRRIP (/note=“Description of artificial sequence variable insert”) [Control Peptide, random peptide used for control purposes, reference compound]
90 +/− 30 neutrophils/ml (× 10^3): counts of neutrophils in the BALF (mean +/ SD) (LPS induced lung injury; [10])
91 +/− 33 neutrophils/ml (× 10^3): counts of neutrophils in the BALF (mean +/ SD) (LPS induced lung injury; comparison with Bβ15-42 (Table 6), 6 h after LPS, intraperitoneal application)
237 ± 32 µg/mL: albumine content of BALFs (mean +/ SD) (LPS induced lung injury; [10])
250 ± 25 µg/mL: albumine content of BALFs (mean +/ SD) (LPS induced lung injury; comparison with Bβ15-42 (Table 6, last section), 6 h after LPS, intraperitoneal application as printed)
94 +/− 30 neutrophils/ml (× 10^3): counts of neutrophils in the BALF (mean +/ SD) (LPS induced lung injury; comparison with Bβ15-42 (Table 6), 6 h after LPS, intratracheal plus intraperitoneal application)
88 +/− 33 neutrophils/ml (× 10^3): counts of neutrophils in the BALF (mean +/ SD) (LPS induced lung injury; 6 h after LPS administration, intraperitoneal application (2×2 mg/kg))
1: GEF-activity, relative values compared to unstimulated control (Mean) (GEF [1]; 1 min) | GEF-activity, relative values compared to unstimulated control (Mean) (GEF [1]; 5 min) | GEF-activity, relative values compared to unstimulated control (Mean) (GEF [2]; 1 min) | GEF-activity, relative values compared to unstimulated control (Mean) (GEF [2]; 5 min) | GEF-activity, relative values compared to unstimulated control (Mean) (GEF [3]; 1 min) | GEF-activity, relative values compared to unstimulated control (Mean) (GEF [3]; 5 min) | GTP-bound RhoA, relative values compared to unstimulated control (Mean) (GTP-bound RhoA [4]; 1 min) | GTP-bound RhoA, relative values compared to unstimulated control (Mean) (GTP-bound RhoA [4]; 5 min) | GTP-bound RhoA, relative values compared to unstimulated control (Mean) (GTP-bound RhoA [5]; 1 min) | GTP-bound RhoA, relative values compared to unstimulated control (Mean) (GTP-bound RhoA [5]; 5 min) | GTP-bound RhoA, relative values compared to unstimulated control (Mean) (GTP-bound RhoA [6]; 1 min) | GTP-bound RhoA, relative values compared to unstimulated control (Mean) (GTP-bound RhoA [6]; 5 min)
0: MLC phosphorylation and actin stress fiber formation, evaluation score (Mean) ([7]; 1 min) | MLC phosphorylation and actin stress fiber formation, evaluation score (Mean) ([7]; 5 min) | MLC phosphorylation and actin stress fiber formation, evaluation score (Mean) ([8]; 1 min) | MLC phosphorylation and actin stress fiber formation, evaluation score (Mean) ([8]; 5 min) | MLC phosphorylation and actin stress fiber formation, evaluation score (Mean) ([9]; 1 min) | MLC phosphorylation and actin stress fiber formation, evaluation score (Mean) ([9]; 5 min)
